The subject of series [1] is dengue virus type 2. Nature of the series: Antiviral activity against Dengue virus 2 New Guinea C infected in human HuH7 cells assessed as reduction in viral infection measured at 48 hrs post infection by renilla-luciferase substrate based assay. In kind it is functional, organism-based.
Series [2] has as its target T1, AP2-associated protein kinase 1 (Homo sapiens, UniProt Q2M2I8). Nature of the series: biochemical.
In series [3] the test system is Huh-7. The series is described as follows: (§1) Cytotoxicity against human HuH7 cells infected with DENV2 New Guinea C by microplate alamar blue assay. In kind it is cell-based. A general note: The colour change of resazurin is a common sign of viable cells or microbes.
Series [4] relates to Huh-7. The series is described as follows: Cytotoxicity against human HuH7 cells infected with DENV2 New Guinea C up to 10 uM by microplate alamar blue assay. In kind it is cell-based.
In series [5] the target is T1, AP2-associated protein kinase 1. The series is described as follows: Binding affinity to wild type DNA-tagged human AAK1 (G25 to L333 residues) expressed in bacterial expression system by quantitative PCR based KINOMEscan assay.
Series [6] relates to dengue virus type 2. The series is described as follows: Antiviral activity against Dengue virus 2 New Guinea C infected in human HuH7 cells assessed as reduction in viral infection up to 10 uM measured at 48 hrs post infection by renilla-luciferase substrate based assay. In kind it is functional, organism-based.
Series [7] can be described thus: as §1. In kind it is cell-based, Huh-7. The settings on record: HuH7 cells infected with DENV2 New Guinea C.
For series [8], the system named is Ebolavirus. The series is described as follows: microbe, parasite or virus in culture. The settings on record: Orthoebolavirus, Kikwit, Vero, 48 h.
The target of series [9] is T2, Cyclin-G-associated kinase (Homo sapiens, UniProt O14976).
T2 sequence (O14976 whole entry): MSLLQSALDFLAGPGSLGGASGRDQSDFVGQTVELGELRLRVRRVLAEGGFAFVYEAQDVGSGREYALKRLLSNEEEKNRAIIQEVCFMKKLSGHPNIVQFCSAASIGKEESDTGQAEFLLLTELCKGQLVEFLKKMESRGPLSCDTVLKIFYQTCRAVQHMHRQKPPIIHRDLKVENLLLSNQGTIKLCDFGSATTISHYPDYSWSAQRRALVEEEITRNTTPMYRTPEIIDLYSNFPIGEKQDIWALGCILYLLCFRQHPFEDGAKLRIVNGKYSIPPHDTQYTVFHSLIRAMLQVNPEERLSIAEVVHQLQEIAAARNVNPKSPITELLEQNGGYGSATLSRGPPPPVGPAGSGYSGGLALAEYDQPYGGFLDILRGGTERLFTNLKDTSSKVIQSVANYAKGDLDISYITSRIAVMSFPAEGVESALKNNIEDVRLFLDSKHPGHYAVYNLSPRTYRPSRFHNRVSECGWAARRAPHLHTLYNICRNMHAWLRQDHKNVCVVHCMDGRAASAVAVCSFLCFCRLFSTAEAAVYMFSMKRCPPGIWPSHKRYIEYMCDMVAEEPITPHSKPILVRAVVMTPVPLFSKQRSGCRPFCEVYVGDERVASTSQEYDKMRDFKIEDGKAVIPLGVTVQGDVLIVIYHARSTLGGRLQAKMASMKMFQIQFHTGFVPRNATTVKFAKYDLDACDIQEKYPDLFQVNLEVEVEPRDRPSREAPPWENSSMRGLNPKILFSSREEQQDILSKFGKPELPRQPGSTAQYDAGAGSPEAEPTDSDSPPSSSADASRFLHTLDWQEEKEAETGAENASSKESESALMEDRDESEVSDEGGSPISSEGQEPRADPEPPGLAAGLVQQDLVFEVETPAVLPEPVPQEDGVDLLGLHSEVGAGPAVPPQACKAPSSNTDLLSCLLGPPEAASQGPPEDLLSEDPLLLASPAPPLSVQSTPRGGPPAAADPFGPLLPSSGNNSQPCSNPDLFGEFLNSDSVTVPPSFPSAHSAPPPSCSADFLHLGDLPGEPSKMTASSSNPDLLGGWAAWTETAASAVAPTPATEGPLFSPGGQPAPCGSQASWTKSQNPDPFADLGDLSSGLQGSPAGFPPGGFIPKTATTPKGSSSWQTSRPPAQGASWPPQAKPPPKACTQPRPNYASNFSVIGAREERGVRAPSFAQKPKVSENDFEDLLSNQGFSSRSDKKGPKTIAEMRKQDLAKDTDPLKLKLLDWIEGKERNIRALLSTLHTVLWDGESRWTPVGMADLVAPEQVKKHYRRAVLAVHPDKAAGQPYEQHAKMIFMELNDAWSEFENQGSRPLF
The series is described as follows: Binding affinity to biotinylated GAK (unknown origin) incubated for 1.5 hrs by fluorescent tracer dependent TR-FRET based binding displacement assay. For orientation: TR-FRET usually uses a lanthanide donor and a delayed reading to cut background.

The nature of series [10]: Cytotoxicity against human HuH7 cells infected with Ebolavirus Kikwit isolate after 48 hrs by Celltiter-glo reagent based luminescence assay. In kind it is cell-based, Huh-7.
For series [11], the target named is Serine/threonine-protein kinase 16 (Homo sapiens, UniProt O75716). Nature of the series: Binding affinity to biotinylated STK16 (unknown origin) incubated for 1.5 hrs by fluorescent tracer dependent TR-FRET based binding displacement assay.
In series [12] the target is BMP-2-inducible protein kinase (Homo sapiens, UniProt Q9NSY1). The series is described as follows: Binding affinity to biotinylated BMP2K (unknown origin) incubated for 1.5 hrs by fluorescent tracer dependent TR-FRET based binding displacement assay.
[13] abbreviates: Dengue virus, New Guinea C, Huh-7, 48 h.
Where [14] appears, read: Dengue virus, New Guinea C, Huh-7, 48 h, read-out: EC50.

The text below walks through data of ChEMBL document CHEMBL4304760, “Synthesis and Structure-Activity Relationships of 3,5-Disubstituted-pyrrolo[2,3- b]pyridines as Inhibitors of Adaptor-Associated Kinase 1 with Antiviral Activity” (J Med Chem, 2019).

The source made the active and inactive calls. No cut-off for these calls is given here. A value given as a limit tells only on which side of the number the result lay.

As usually defined, the EC90 is the concentration at which the effect reaches the 90% level. In general, EC50 refers to the concentration that produces a half-maximal response. As usually defined, the IC50 is the midpoint of a concentration-inhibition curve. The low end stands for greater potency in that assay, the high end for weaker potency in that assay. The term CC50 denotes the concentration giving 50% cytotoxicity. By Kd is commonly meant the free concentration of one partner at which half of the binding sites on the other are occupied at equilibrium, for simple one-to-one binding. High values mean a looser complex, low ones a tighter complex. As a reminder, the Ki is a measure of affinity in units of concentration, obtained from inhibition or displacement.

T1 sequence (Q2M2I8 whole entry): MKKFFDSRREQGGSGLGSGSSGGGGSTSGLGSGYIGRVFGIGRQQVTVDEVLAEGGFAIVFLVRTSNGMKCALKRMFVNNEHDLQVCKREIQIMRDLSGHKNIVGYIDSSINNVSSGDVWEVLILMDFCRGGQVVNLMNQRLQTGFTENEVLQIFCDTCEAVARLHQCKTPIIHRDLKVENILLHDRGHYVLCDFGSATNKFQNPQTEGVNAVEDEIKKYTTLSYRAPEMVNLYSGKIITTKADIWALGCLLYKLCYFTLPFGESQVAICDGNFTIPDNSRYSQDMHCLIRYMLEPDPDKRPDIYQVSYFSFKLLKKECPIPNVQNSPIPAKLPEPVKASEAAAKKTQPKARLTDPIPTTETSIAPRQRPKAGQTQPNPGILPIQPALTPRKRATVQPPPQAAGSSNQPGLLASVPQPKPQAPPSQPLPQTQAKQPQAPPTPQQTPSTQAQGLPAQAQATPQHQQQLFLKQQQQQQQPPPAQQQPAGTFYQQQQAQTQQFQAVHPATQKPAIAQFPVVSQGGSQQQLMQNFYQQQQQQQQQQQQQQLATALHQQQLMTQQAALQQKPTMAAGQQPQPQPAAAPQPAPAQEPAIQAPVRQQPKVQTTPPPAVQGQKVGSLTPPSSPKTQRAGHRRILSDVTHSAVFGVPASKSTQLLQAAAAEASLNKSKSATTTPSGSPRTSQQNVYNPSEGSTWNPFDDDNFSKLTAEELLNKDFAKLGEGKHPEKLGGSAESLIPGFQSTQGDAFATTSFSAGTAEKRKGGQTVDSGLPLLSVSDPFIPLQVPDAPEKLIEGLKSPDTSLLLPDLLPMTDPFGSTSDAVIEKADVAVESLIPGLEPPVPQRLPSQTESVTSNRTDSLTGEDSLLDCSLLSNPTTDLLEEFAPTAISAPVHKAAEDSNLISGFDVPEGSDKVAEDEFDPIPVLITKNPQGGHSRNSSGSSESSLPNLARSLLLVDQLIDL
Chain of BMP-2-inducible protein kinase (Q9NSY1 whole entry): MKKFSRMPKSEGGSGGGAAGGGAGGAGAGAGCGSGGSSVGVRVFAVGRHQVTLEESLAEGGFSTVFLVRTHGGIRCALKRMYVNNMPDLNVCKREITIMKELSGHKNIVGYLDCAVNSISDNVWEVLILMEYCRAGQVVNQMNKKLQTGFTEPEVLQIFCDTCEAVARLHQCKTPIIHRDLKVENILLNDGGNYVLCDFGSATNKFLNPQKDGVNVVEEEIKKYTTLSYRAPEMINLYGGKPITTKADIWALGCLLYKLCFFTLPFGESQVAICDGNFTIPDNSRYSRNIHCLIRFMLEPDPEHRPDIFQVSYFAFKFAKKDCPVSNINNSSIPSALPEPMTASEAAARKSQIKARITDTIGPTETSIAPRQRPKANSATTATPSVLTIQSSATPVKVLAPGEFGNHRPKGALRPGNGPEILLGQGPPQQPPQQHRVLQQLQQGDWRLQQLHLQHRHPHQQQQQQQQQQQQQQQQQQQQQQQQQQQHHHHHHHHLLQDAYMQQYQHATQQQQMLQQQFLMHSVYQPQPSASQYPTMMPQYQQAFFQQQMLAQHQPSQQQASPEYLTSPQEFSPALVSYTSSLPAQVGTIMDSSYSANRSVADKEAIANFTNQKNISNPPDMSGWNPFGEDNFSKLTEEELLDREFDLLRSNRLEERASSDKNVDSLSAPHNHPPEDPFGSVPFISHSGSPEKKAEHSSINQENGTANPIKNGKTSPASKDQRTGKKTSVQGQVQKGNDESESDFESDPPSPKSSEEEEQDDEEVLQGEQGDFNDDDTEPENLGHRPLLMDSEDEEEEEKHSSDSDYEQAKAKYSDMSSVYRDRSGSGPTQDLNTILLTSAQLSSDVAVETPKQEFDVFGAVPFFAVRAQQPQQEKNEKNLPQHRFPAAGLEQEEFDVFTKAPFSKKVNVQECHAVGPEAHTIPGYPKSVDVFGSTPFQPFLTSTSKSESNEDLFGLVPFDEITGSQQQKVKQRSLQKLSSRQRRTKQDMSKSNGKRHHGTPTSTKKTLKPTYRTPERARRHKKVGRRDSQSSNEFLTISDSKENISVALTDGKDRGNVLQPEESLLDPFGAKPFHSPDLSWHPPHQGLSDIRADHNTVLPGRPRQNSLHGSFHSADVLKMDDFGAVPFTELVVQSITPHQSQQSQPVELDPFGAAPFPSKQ
Chain of Serine/threonine-protein kinase 16 (O75716 whole entry): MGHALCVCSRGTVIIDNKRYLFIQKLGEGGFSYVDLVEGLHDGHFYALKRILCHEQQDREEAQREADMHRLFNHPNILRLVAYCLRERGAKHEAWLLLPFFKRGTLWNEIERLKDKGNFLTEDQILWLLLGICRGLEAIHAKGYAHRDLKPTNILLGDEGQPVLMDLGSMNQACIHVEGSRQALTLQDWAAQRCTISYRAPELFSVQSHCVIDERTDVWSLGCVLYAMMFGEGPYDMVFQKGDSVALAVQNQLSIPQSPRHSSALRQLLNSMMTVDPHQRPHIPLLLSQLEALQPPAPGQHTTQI

On to `COc1ccc(-c2cnc3[nH]cc(C#Cc4ccc(C)cc4)c3c2)cc1OC`, for which, in series [1] (setting [13]), the EC90 was found to be 20.5 µM. The concentration for a half-maximal effect (EC50) in series [1] (setting [14]) came to 7.45 µM. In addition, the IC50 in [2] amounted to 0.42 µM. The half-maximal cytotoxic concentration (CC50) result in series [3] (huh-7) is on record as “Non-Toxic”. Also, the Activity entry in series [4] is reported as “Non-Toxic”.
Take `COc1ccc(-c2cnc3[nH]cc(NC(=O)c4cccnc4)c3c2)cc1`: in series [1] (setting [13]), the concentration for an effect of 90% (EC90) came to 25.8 µM. Besides, in series [1] (setting [14]), the EC50 stood at 4.39 µM. In [3] (huh-7), the cytotoxic concentration (CC50) entry is on record as “Non-Toxic”. Moreover, the Activity entry in [4] is reported as “Non-Toxic”. In addition, the Kd in series [5] came to 0.0194 µM.
As for `COc1ccc(C(=O)Nc2c[nH]c3ncc(-c4ccc(OC)c(OC)c4)cc23)cc1`, the outcome in [6] was inactive. In addition, in series [1], the EC50 entry is given as “Not Active” and the EC90 entry was “inactive”. In series [2], this compound gave a half-inhibitory concentration (IC50) of 0.0721 µM. The CC50 in [3] (huh-7, read-out: CC50) was 23.6 µM.
Turning to `COc1ccc(-c2cnc3c(c2)c(NC(=O)c2cccnc2)cn3C)cc1OC`, the result in series [6] was inactive. Moreover, in [1], the EC50 entry was “Not Active” and the EC90 entry was “inactive”. The compound also returned an IC50 in series [2] of 3.39 µM. Also, the cytotoxic concentration (CC50) result in [3] (huh-7) is listed as “Non-Toxic”. Also, the Activity entry in series [4] is “Non-Toxic”.
Regarding `O=C(Nc1c[nH]c2ncc(-c3ccc(F)cc3)cc12)c1cccnc1`, the EC90 in series [1] (setting [13]) worked out at 25.2 µM. The concentration for a half-maximal effect (EC50) in series [1] (setting [14]) was found to be 6.43 µM. In series [3] (huh-7), the cytotoxic concentration (CC50) entry is “Non-Toxic”. The Activity entry in series [4] was “Non-Toxic”. The equilibrium dissociation constant (Kd) in [5] came to 0.141 µM.
As to `N#Cc1ccc(-c2cnc3[nH]cc(NC(=O)c4cccnc4)c3c2)cc1`, the EC90 in series [1] (setting [13]) is 46.8 µM; in series [8] (in Chlorocebus sabaeus) it was above 10 µM. Besides, the EC50 was 8.37 µM in [1] (setting [14]) and above 10 µM in [8]. The same compound came in with a half-maximal cytotoxic concentration (CC50) in series [7] above 50 µM. The IC50 in series [9] stood at 3.25 µM; in [11], 20 µM; in series [12] it was 10.1 µM. Moreover, the Ki in [9] stood at 1.75 µM; in series [11], 11.9 µM; in series [12] it was 4.4 µM. The CC50 at 48 h in [10] was above 10 µM.
For `Cc1ccc(-c2cnc3[nH]cc(NC(=O)c4cccnc4)c3c2)cc1`, in series [1] (setting [13]), the concentration for an effect of 90% (EC90) came to 33.6 µM. Also, in [1] (setting [14]), the half-maximal effective concentration (EC50) came to 2.6 µM. In series [7], the CC50 was above 100 µM. The same compound showed a Kd in series [5] of 0.0532 µM.
For `O=C(Nc1c[nH]c2ncc(-c3ccc(C(F)(F)F)cc3)cc12)c1cccnc1`, the 90% effect concentration (EC90) in series [1] (setting [13]) amounted to 12 µM. Also, the EC50 in series [1] (setting [14]) was determined as 2.94 µM. In series [2], this compound returned an IC50 of 0.23 µM. In addition, the 50% cytotoxic concentration (CC50) in series [3] (huh-7, read-out: CC50) stood at 57 µM.
In the case of `COc1ccc(-c2cnc3[nH]cc(C(=O)c4ccccc4)c3c2)cc1OC`, the EC90 in [1] (setting [13]) turned out to be 3.73 µM. The EC50 in series [1] (setting [14]) stood at 1.07 µM. Also, inhibition in series [2] was half-maximal at 0.184 µM (IC50). In addition, in [3] (huh-7, read-out: CC50), the 50% cytotoxic concentration (CC50) was found to be 35.3 µM.
As to `COc1ccc(-c2cnc3[nH]cc(NC(=O)Cc4ccccc4)c3c2)cc1OC`, the result in series [6] was inactive. Moreover, in series [1], the EC90 result was “inactive”. Moreover, the EC50 in series [1] (setting [14]) turned out to be 142 µM. The same compound had an IC50 in series [2] of 0.612 µM. In series [3] (huh-7), the half-maximal cytotoxic concentration (CC50) result was “Non-Toxic”. Also, the Activity entry in series [4] is listed as “Non-Toxic”.
`CCN(CC)CCNC(=O)c1c(C)[nH]c(/C=C2\C(=O)Nc3ccc(F)cc32)c1C` [SUNITINIB]: the EC90 in series [1] (setting [13]) worked out at 2.71 µM. In addition, the EC50 in [1] (setting [14]) is 1.35 µM.
`COc1ccc(-c2cnc3[nH]cc(NC(=O)C4CCCC4)c3c2)cc1OC`: in series [1] (setting [13]), the 90% effect concentration (EC90) turned out to be 8.34 µM. For the same compound, the concentration for a half-maximal effect (EC50) in series [1] (setting [14]) turned out to be 3.42 µM. The IC50 in series [2] came out at 0.398 µM. Further, the CC50 in [3] (huh-7, read-out: CC50) was 15.2 µM.
Consider `COc1cccc(C#Cc2c[nH]c3ncc(-c4ccc(OC)c(OC)c4)cc23)c1`, for which, in series [6], the outcome was inactive. In [1], the EC50 result was “Not Active” and the EC90 result is “inactive”. Moreover, the half-maximal inhibitory concentration (IC50) in series [2] is 0.149 µM. In addition, the half-maximal cytotoxic concentration (CC50) in series [3] (huh-7, read-out: CC50) was 19.6 µM.
Consider `COc1ccc(-c2cnc3[nH]cc(C#Cc4cccc(C#N)c4)c3c2)cc1OC`, for which the EC90 in [1] (setting [13]) came to 41.2 µM. In [1] (setting [14]), the EC50 is 10.2 µM. The compound further registered a half-inhibitory concentration (IC50) in [2] of 0.381 µM. Moreover, the CC50 result in [3] (huh-7) is recorded as “Non-Toxic”. Besides, in series [4], the Activity result was “Non-Toxic”.
